Reference: US20060292213A1, “Enoximone formulations and their use in the treatment of PDE-III mediated diseases” (Myogen, Inc., priority 2004, published 2006)
Values after ≈ are worked out from the molar mass of the structure shown. Read-outs that look alike come from different tables or passages of the source.

Experiments:
[1] = system: patients with primary thrombocythemia and thrombocytosis; settings: used to lower platelet counts; cited from earlier work
PDE-III = settings: cited from earlier work
men who suffer from ED = settings: ED of psychogenic or organic etiology; cited from earlier work
[2] = system: spontaneously hypertensive rats; experiment: Anti-hypertensive activity, spontaneously hypertensive rats, single dose (Example 2); assay type: in vivo, rat; settings: for blood pressure (mean arterial): vehicle 169+/−7.9
Protocol: Spontaneously hypertensive rats were divided into groups and treated with vehicle or a single dose of 10, 30 or 100 mg/kg of enoximone. Mean arterial blood pressure and heart rate were recorded before and at 15, 30, 45 and 60 minutes after treatment. Blood pressure decreased in all drug treatment groups.

[3] = system: human platelet aggregation; experiment: Human platelet aggregation in platelet rich plasma, aggregometer (Example 8); assay type: cell-based; settings: 5 min, PRP incubated 5 minutes at room temperature
Protocol: Substances which increase platelet cAMP levels are known to inhibit platelet aggregation. Blood was taken from human donors not on aspirin or taking any aspirin-containing substances (or other nonsteroidal anti-inflammatory drugs) for at least two weeks prior to donation. […] PRP was exposed only to plastic laboratory ware. All experiments were completed within 3 hours. PRP was incubated for 5 minutes at room temperature with enoximone prior to the addition of any aggregating agent. Aggregation was monitored by continuous recording of light transmittance in a Chrono-log dual-channel aggregometer (Chrono-log Corp.) in atotal volume of 0.5 ml PRP. Aggregating substances used were ADP (5 μM), collagen […] and arachidonic acid (2 μg/ml) (Chrono-log Corp.). Enoximone ([…]) inhibited platelet aggregation in a concentration dependent manner. […] It was also ruled out that enoximone was inhibiting aggregation by somehow inhibiting the metabolism of arachidonic acid as measured by HPLC and RIA.

perfused hindlimb = experiment: Arteriolar resistance, pump perfused hindlimb preparation (Example 6); assay type: in vivo, dog
Excerpt: The pump perfused hindlimb preparation permits the in vivo determination of the direct vascular effects of a compound. Dogs were anesthetized and allowed to respire sponatenously. The branchial artery and vein were cannulated and a catheter was passed down the left carotid artery into the left ventricle. […]

Mongrel dogs = experiment: Coronary blood flow, anesthetized mongrel dogs, electromagnetic flow probe (Example 5); assay type: in vivo, dog
Protocol: Mongrel dogs were anesthetized and given bolus injections of enoximone and coronary blood flow was measured using a Stratham electromagnetic flow probe, Model SP-7516-606-214, placed around the circumflex branch of the left coronary artery near its origin. The flow probe was connected to a Stratham Model SP2202 electromagnetic flow meter which was connected to a Grass Model 7P1 low level DC preamplifier. All recordings were made on a Grass Model 7B or […] polygraph.

anesthetized dogs = experiment: Cardiorenal hemodynamics, i.v. infusion in anesthetized dogs (Example 3); assay type: in vivo, dog
[4] = system: subjects displaying chronic stable angina; experiment: Double blind placebo controlled cross over trial in chronic stable angina (Example 7); assay type: in vivo, human; settings: single oral dose 75 mg
Protocol: A double blind placebo controlled cross over trial of enoximone was done with 20 subjects displaying chronic stable angina. Enoximone as a single oral dose (75 mg) was compared with placebo.

[5] = system: spontaneously hypertensive rats; experiment: Anti-hypertensive activity, cannulated conscious female spontaneously hypertensive rats (Example 1); assay type: in vivo, rat; settings: 45 and 60 minute time points, 100 mg/kg and 30 mg/kg groups; statistically significant
Protocol: Female spontaneously hypertensive rats were anesthetized and cannulated. The end of the cannula was exteriorized through the skin for measurement of arterial blood pressure. Approximately 30 minutes after the rats regained consciousness, the experiment began. Mean blood pressure and heart rate were recorded 15 minutes prior to drug administration, at the time of administration, and 15, 30, 45 and 60 minutes following administration. Drug was administered at a variety of dosages. A statistically significant decrease in blood pressure of ˜42% was measured at the 45 and 60 minute time points for the 100 mg/kg and 30 mg/kg groups.

normal human volunteers = experiment: Renal function and plasma volume in normal human volunteers (Example 4); settings: single I.V. dose 2.5 mg/kg, then 200 mg t.i.d. for 5 days

In the case of interferon-α, the “patients achieving a stable state of remission” value [1] is listed as “approximately 50%”.

In the case of `CCCc1nn(C)c2c(=O)[nH]c(-c3cc(S(=O)(=O)N4CCN(C)CC4)ccc3OCC)nc12` [Sildenafil, 5-[2-ethoxy-5-(4-methylpiperazin-1-ylsulphonyl)phenyl]-1-methyl-3-n-propyl-6,7-dihydro-1H-pyrazolo[4,3-d]pyrimidin-7-one], the “inhibition of PDE-III” value (PDE-III) is listed as “negligible inhibition” and the “men with improved sexual function” value (men who suffer from ED) is listed as “about 70%”.

With `CSc1ccc(C(=O)c2[nH]c(=O)[nH]c2C)cc1` [Enoximone, 1,3-Dihydro-4-methyl-5-[4-(methylthio)benzoyl]-2H-imidazol-2-one] the “blood pressure (mean arterial)” value ([2]; 45 minutes, 30 mg/kg, non-significant) was 151+/−9, the “blood pressure (mean arterial)” value ([2]; 60 minutes, 30 mg/kg, non-significant) was 142+/−8 and the “blood pressure (mean arterial)” value ([2]; 60 minutes, 100 mg/kg, significant) was 100+/−9.7. The “blood pressure, change in words” value ([2]; all drug treatment groups (10, 30 or 100 mg/kg)) was “decreased”, the heart rates ([2]; all groups (10, 30 or 100 mg/kg)) was “unchanged” and the IC50 ([3]; ADP (5 μM), read-out: IC50 for ADP induced aggregation) was 20.9 µg/mL (≈ 84.2 µM). The IC50 ([3]; arachidonic acid (2 μg/ml), read-out: IC50 for arachidonic acid induced aggregation) was 0.24 µg/mL (≈ 0.967 µM), the IC50 ([3]; collagen (1.0 mM), read-out: IC50 for collagen induced aggregation) was 36.3 µg/mL (≈ 146 µM) and the “decrease in hind limb perfusion pressure” value (perfused hindlimb; 0.3 mg/kg) was 11+/−2%. The “decrease in hind limb perfusion pressure” value (perfused hindlimb; 3 mg/kg) was 25+/−2%, the “increase in coronary blood flow” value (Mongrel dogs; bolus injection 0.1 mg/kg) was 12+/−2% and the “increase in coronary blood flow” value (Mongrel dogs; bolus injection 1 mg/kg) was 41+/−6%. The blood pressure (anesthetized dogs; 30 μg/kg/min i.v. infusion) was “decreasing”, the cardiac contractile force (anesthetized dogs; 30 μg/kg/min i.v. infusion) was “increasing” and the glomerular filtration (anesthetized dogs; 100 μg/kg/min i.v. infusion) was “unchanged”. For the same molecule, the “increase in renal blood flow” value (anesthetized dogs; 100 μg/kg/min i.v. infusion) was 15-20%, the renal vascular resistance (anesthetized dogs; 100 μg/kg/min i.v. infusion) was “measurable decreases” and the “total exercise duration, mean difference versus placebo” value ([4]; significantly longer than placebo) was 22.8 s. For the same molecule, the “time to onset of angina and development of significant ST-segment decrease, versus placebo” value ([4]; trends in favor of enoximone) was “similar”, the “decrease in blood pressure” value [5] was roughly 42% and the renal function (normal human volunteers) was “no impairment”.
